The values below come from patent US9943528B2 (MAPREG, priority 2016, dated 2018).

Entries after “also recorded” stand apart in the source; their conditions may differ.

The test system of series [1] is purified tubulin and MAP2. The series can be described thus: Activity: increase in optical density at 345 nm of purified tubulin and MAP2 with GTP. The series is classed as biochemical. The following applies: 37° C. Here is the method:
Activity is measured by the increase in optical density at 345 nm of a mixture of purified tubulin and MAP2, incubated at 37° C. in the presence of GTP.

In a further series the test system is MAP2. Description: Binding (affinity) by displacement of PREG-3H.
The next series has as its system PC12 cells. Description: Stimulation of neuritic sprouting on PC12 cells differentiated with NGF. The series is classed as cell-based. Conditions: NGF 10 ng/ml, steroid 30 μM, 3 days, relative to PREG. Here is the method:
Stimulation of neuritic sprouting is conducted on PC12 cells differentiated in the presence of NGF (10 ng/ml) and the steroid being tested (30 μM) for 3 days. For each condition, the average length of the longest 200 neurites in each cell is measured simultaneously for 3 cultures.

The subject of series [2] is Wistar Kyoto rat strain (WKY). Conditions: WKY rats, literature; cited from earlier work.
In another series the test system is Wistar Kyoto (WKY) rats. The series can be described thus: Open-field arena (OFA) in WKY rats, acute treatment. In kind it is in vivo, rat. Conditions: fluoxetine 10 mg/kg i.p., ketamine 30 mg/kg i.p.; for number of entries in the central square of OFA, change vs WKY receiving only vehicle: FIG. 5B; for time spent in the center of open-field vs WKY receiving vehicle: FIG. 5C. As to the method:
After a 6-day period of acclimatization, all experimental groups received daily successive subcutaneous (250 μl per rat) and intraperitoneal (1 ml/kg) injections. WI rats received injection of vehicle (sesame oil+saline) while WKY rats were randomly assigned to […] experimental groups, as follow: KWY rats receiving only vehicle (sesame oil+saline) and WKY rats treated with MAP4343 (10 mg/kg, s.c.; rats received in parallel i.p. injections of saline), fluoxetine (10 mg/kg i.p., rats received in parallel s.c. injections of sesame oil) or ketamine (30 mg/kg, i.p.; rats received in parallel s.c. injections of sesame oil) (see FIG. 3).
After, a 6-day period of acclimatization, the acute phase of treatment started for 4 days during behavioral tests were performed (FIG. 3). All animals were injected 1 h 30 before the starting of behavioral test.
The animals were individually placed in the open field arena (OFA) (70×100×70 cm), with a central square (35×50 cm), located in a 50 lux illuminated room and videotaped during 3 min using a computerized system (VideoTrack V2.5, ViewPoint, Lyon, France).
OFA allows firstly the evaluation of total locomotor activity (LMA) thereby measuring the total distance travelled in the arena (in cm). Secondly, measurements of the activity in the center of the arena like (i) the number of entries in the center of arena and (ii) the total time spent in the center of arena (in sec) provide cues of anxiety-like behavior (Prut and Belzung, 2003). All these behavioral parameters were instantaneously measured automatically with the VideoTrack V2.5 software from the videos.

Series [3] has as its target T1, human progesterone receptor (PR) (Homo sapiens, UniProt P06401).
T1 construct: expressed in transfected cells; host or cells: HEK293T
T1 sequence (P06401 1-933): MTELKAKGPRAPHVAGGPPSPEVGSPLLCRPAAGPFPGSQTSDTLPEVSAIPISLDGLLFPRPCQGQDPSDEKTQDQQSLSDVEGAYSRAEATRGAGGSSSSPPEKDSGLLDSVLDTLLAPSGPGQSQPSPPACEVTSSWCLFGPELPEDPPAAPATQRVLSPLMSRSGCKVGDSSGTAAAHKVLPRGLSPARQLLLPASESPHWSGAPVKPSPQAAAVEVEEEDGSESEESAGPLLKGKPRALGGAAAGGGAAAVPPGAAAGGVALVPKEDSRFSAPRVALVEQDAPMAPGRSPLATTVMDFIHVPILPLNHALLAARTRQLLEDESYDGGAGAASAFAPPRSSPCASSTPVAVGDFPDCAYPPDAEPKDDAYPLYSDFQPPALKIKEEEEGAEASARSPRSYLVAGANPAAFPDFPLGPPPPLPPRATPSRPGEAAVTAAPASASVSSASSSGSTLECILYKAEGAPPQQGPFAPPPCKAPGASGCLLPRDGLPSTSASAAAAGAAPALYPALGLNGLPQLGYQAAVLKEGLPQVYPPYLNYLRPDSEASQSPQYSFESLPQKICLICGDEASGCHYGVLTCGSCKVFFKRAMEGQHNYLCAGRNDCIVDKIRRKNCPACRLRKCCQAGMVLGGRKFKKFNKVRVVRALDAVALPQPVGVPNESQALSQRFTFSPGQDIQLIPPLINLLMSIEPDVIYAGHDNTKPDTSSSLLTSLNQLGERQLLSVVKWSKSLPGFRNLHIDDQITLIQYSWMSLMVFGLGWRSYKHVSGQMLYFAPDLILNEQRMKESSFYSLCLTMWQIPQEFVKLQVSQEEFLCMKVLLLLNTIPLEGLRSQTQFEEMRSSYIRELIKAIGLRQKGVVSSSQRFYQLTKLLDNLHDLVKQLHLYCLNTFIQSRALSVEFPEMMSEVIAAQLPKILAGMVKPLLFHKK
Description: Test of progesterone receptor agonist activity (MMTV-luciferase transactivation in transfected HEK293T cells). The series is classed as cell-based. Conditions: 24 hours, increasing amounts, FIG. 1. Here is the method: The main experimental setting used is the following: HEK293T cells were transiently transfected, using calcium phosphate precipitation technology, with expression vectors pSG5hPR (which permits expression of human progesterone receptor (PR)), pFC31-luc (contains the luciferase gene under the control of the MMTV promoter, which is in turn activated by binding of a progestin to progesterone receptor) and pcbetagal (which permits expression of betagalactosidase), and cultured during 24 hours with increasing amounts of various compositions:
Test of Progesterone Receptor Agonist Activity: Transfected Cells were Cultured with Increasing Amounts of Progesterone or 3-Methoxy-Pregnenolone

Series [4] in a line: Body weight of WKY rats under acute treatment. In kind it is in vivo, rat. The following applies: fluoxetine 10 mg/kg.
The test system of the next series is WKY rats. The following applies: cited from earlier work; for resistance of WKY rats to the drug: fluoxetine acute or chronic, citalopram acute, paroxetine sub-chronic (12 days).

On to `CC(=O)[C@@]12C[C@@H]1C[C@H]1[C@@H]3CC=C4C[C@@H](O)CC[C@]4(C)[C@H]3CC[C@@]12C` [PREG-16α,17α-methylene], for which the Activity in series [1] is 49% of PREG. For the same compound, in the series with MAP2, the Affinity is 62% of PREG. Besides, in the series on PC12 cells, the Neuritic sprouting entry is reported as “+ (lower than)”.
As to `CO[C@H]1CC[C@@]2(C)C(=CC[C@H]3C4=CC[C@H](C(C)=O)[C@@]4(C)CC[C@@H]32)C1` [3β-methoxy-pregna-5,14-diene-20-one], the Activity in series [1] is 50% of PREG. The Affinity with MAP2 is given as 102% of PREG.
Consider PREG-16α,17α-epoxy, for which the Activity in series [1] was 54% of PREG. The Affinity in the series on MAP2 is reported as 41% of PREG. The Neuritic sprouting result in the series with PC12 cells is “+ (lower than)”.
Turning to `NNCCc1ccccc1` [phenelzine], in series [2], the “immobility / depressive-like behavior in FST” value is reported as “subacute efficacy to reduce immobility”.
Regarding `CC(=O)[C@H]1[C@H](C)C[C@H]2[C@@H]3CC=C4C[C@@H](O)CC[C@]4(C)[C@H]3CC[C@@]21C` [PREG-16α-methyl], the Activity in series [1] is reported as 70% of PREG. In the series on MAP2, the Affinity is 80% of PREG. Moreover, the Neuritic sprouting entry in the series on PC12 cells is reported as “++ (equal to)”.
Consider `CNC1(c2ccccc2Cl)CCCCC1=O` (stereo not drawn) [ketamine], for which the “locomotor activity (total distance travelled in the open-field arena), change vs WKY receiving vehicle” value in the series with Wistar Kyoto (WKY) rats (MAP4343 10 mg/kg s.c., 3 min, FIG. 5A) was “no significant change of locomotor activity”. Also, in the series on Wistar Kyoto (WKY) rats (MAP4343 10 mg/kg s.c.), the “number of entries in the central square of OFA, change vs WKY receiving only vehicle” value is on record as “failed to significantly modify the low entries in the center” and the “time spent in the center of open-field vs WKY receiving vehicle” value is “did not induce any significant change of this measure”. Also, the “locomotor activity (total distance travelled in the open-field arena), change vs MAP4343-treated WKY” value in the series on Wistar Kyoto (WKY) rats (FIG. 5A) is reported as “no significant change of locomotor activity”. Besides, in series [2], the “immobility / depressive-like behavior in FST” value is given as “elicited antidepressant-like effect; also recorded: decrease immobility”.
For the compound `CC(=O)[C@H]1CC[C@H]2[C@@H]3CC=C4C[C@@H](O)CC[C@]4(C)[C@H]3CC[C@]12C` [Pregnenolone (PREG), 3β-hydroxypregn-5α-en-20α-one, reference compound], the Activity in series [1] was 100% of PREG. For the same compound, the Affinity in the series on MAP2 is recorded as 100% of PREG. Besides, the Neuritic sprouting entry in the series with PC12 cells was “++ (equal to)”.
Regarding `CC(=O)[C@H]1CC[C@H]2[C@@H]3CCC4=CC(=O)CC[C@]4(C)[C@H]3CC[C@]12C` [progesterone, reference compound], in series [3], the “progesterone receptor agonist activity (transactivation, expression of luciferase)” value is listed as “permits a transactivation activity”.
`CO[C@H]1CC[C@@]2(C)C(CCC3C2CC[C@@]2(C)C3CC[C@@H]2[C@@H](C)O)C1` (stereo partly drawn) [3β-methoxy-5α-pregnane-20β-ol]: the Activity in series [1] is on record as 65% of PREG. For the same compound, the Affinity in the series on MAP2 is recorded as 65% of PREG.
Regarding `CNCCCN1c2ccccc2CCc2ccccc21` [desipramine], the “immobility / depressive-like behavior in FST” value in series [2] was “efficient to reverse depressive-like behavior”.
Take `CNCCC(Oc1ccc(C(F)(F)F)cc1)c1ccccc1` (stereo not drawn) [fluoxetine]: in the series with Wistar Kyoto (WKY) rats (MAP4343 10 mg/kg s.c.), the “number of entries in the central square of OFA, change vs WKY receiving only vehicle” value is “failed to significantly modify the low entries in the center” and the “time spent in the center of open-field vs WKY receiving vehicle” value is on record as “did not induce any significant change of this measure”. In the series on Wistar Kyoto (WKY) rats (FIG. 5A), the “locomotor activity (total distance travelled in the open-field arena), change vs MAP4343-treated WKY” value is given as −52%. In addition, the body weight result in series [4] was “a reduced body weight”. In the series on WKY rats (WKY rats, acute or chronic administration), the “efficacy in OFA, EPM and FST” value was “no efficacy”. The “resistance of WKY rats to the drug” value in the series on WKY rats is reported as “resistant”.
`CC(=O)OC(C)C1CCC2C3CC=C4CC(O)CCC4(C)C3CCC12C` (stereo not drawn) [Pregna-5-ene-3β, 20β-dio1-20-acetate]: the Activity in series [1] was 108% of PREG. The Affinity in the series on MAP2 is recorded as 60% of PREG. Besides, the Neuritic sprouting entry in the series with PC12 cells is recorded as “++ (equal to)”.
`CC(=O)[C@H]1[C@H](C)C[C@H]2[C@@H]3CC[C@H]4C[C@@H](O)CC[C@]4(C)[C@H]3CC[C@@]21C` [3β-hydroxy-5α-pregnane-20-one-16α-methyl]: in series [1], the Activity is 53% of PREG. Moreover, the Affinity in the series with MAP2 was 57% of PREG.
Turning to `Fc1ccc([C@@H]2CCNC[C@H]2COc2ccc3c(c2)OCO3)cc1` [paroxetine], the “resistance of WKY rats to the drug” value in the series on WKY rats is on record as “resistant”.
Take `CO[C@H]1CC[C@@]2(C)C(=CC[C@@H]3[C@@H]2CC[C@@]2(C)[C@H]3CC[C@@]2(C(C)=O)C(Cl)Cl)C1` [3β-methoxy-pregna-5-ene-20-one-17α-dichloromethyl]: the Activity in series [1] is recorded as 113% of PREG. The Affinity with MAP2 is listed as 53% of PREG.
Take `CC(=O)[C@H]1[C@@H](C)C[C@H]2[C@@H]3CC=C4C[C@@H](O)CC[C@]4(C)[C@H]3CC[C@@]21C` [PREG-16β-methyl]: the Activity in series [1] is on record as 67% of PREG. Further, in the series on MAP2, the Affinity was 63% of PREG.
With `CO[C@H]1CC[C@@]2(C)[C@@H](CC[C@@H]3[C@@H]2CC[C@]2(C)[C@@H](C(C)=O)CC[C@@H]32)C1` [3β-methoxy-5α-pregnane-20-one], in series [1], the Activity was 10% of PREG. The Affinity in the series on MAP2 is given as 87% of PREG.
